In patent publication US5696245A, “Fructofuranosyl substituted polymers and methods for their production” (The University of Montana, priority 1995, dated 1997):
Values after ≈ are worked out from the molar mass of the structure shown.

How the values were obtained:
[1] = Solubility of Estriol in water in presence of CD's and Fru-CD's; type: physicochemical
Method: (§1) The solubilities of 2 and 4 were determined as were their respective abilities to solubilize a slightly soluble drug.
Solubility of Estriol in Water in
Presence of CD's and Fru-CD's at 20° C.
Solubility in 1.5 × 10^-2 M CD

[2] = system: invertase; experiment: Hydrolysis by invertase; type: biochemical; details: conditions of complete sucrose hydrolysis in 30 minutes
Text: (§2) No inhibition was manifested by the parent CD's. […] Furthermore, provided that the Fru-α-CD is capable of transport to regions of plants or of plant cells, where invertase action occurs, then it is a potent plant growth regulator.

[3] = system: invertase; experiment: Inhibition of invertase (hydrolysis of sucrose); type: biochemical; details: for inhibition of invertase: 1:1 mole ratio with sucrose
Text: Reference is now made to the drawings accompanying the application wherein the sole Figure is a graph showing the action of invertase on sucrose in the presence of cyclodextrins and fructosyl cyclodextrins.
as §2

[4] = Solubility in water of CD's and Fru-CD's; type: physicochemical; details: 21° C. ± 1° C.
Method: as §1
^a determined at 21° C. ± 1° C.

Row | hydrolysis by invertase [2] | Solubility in water [4] [mg/mL] | SMILES | inhibition of invertase [3] | further results
1 |  |  | C[C@]12CC[C@@H]3c4ccc(O)cc4CC[C@H]3[C@@H]1C[C@@H](O)[C@@H]2O [Estriol, reference compound] |  | solubility ([1]; water without CD, 20° C.): 0.023 mg/mL
2 | unaffected by invertase | 1136 (≈ 876 mM) | OC[C@H]1O[C@@](CO)(OC[C@H]2O[C@@H]3O[C@H]4[C@H](O)[C@@H](O)[C@@H](O[C@H]5[C@H](O)[C@@H](O)[C@@H](O[C@H]6[C@H](O)[C@@H](O)[C@@H](O[C@H]7[C@H](O)[C@@H](O)[C@@H](O[C@H]8[C@H](O)[C@@H](O)[C@@H](O[C@H]9[C@H](O)[C@@H](O)[C@@H](O[C@H]2[C@H](O)[C@H]3O)O[C@@H]9CO)O[C@@H]8CO)O[C@@H]7CO)O[C@@H]6CO)O[C@@H]5CO)O[C@@H]4CO)[C@@H](O)[C@@H]1O [compound 2, 6-O-(β-D-fructofuranosyl) cycloheptaamylose] | demonstrated inhibition of invertase | ability to solubilize sparingly soluble compounds by inclusion, vs parent cyclodextrins ([1]; general description): increased ability to solubilize
3 | unaffected by invertase | 1054 (≈ 929 mM) | OC[C@H]1O[C@@](CO)(OC[C@H]2O[C@@H]3O[C@H]4[C@H](O)[C@@H](O)[C@@H](O[C@H]5[C@H](O)[C@@H](O)[C@@H](O[C@H]6[C@H](O)[C@@H](O)[C@@H](O[C@H]7[C@H](O)[C@@H](O)[C@@H](O[C@H]8[C@H](O)[C@@H](O)[C@@H](O[C@H]2[C@H](O)[C@H]3O)O[C@@H]8CO)O[C@@H]7CO)O[C@@H]6CO)O[C@@H]5CO)O[C@@H]4CO)[C@@H](O)[C@@H]1O [compound 4, 6-O-(β-D-fructofuranosyl) cyclohexaamylose] | to a much greater extent, 4 demonstrated inhibition of invertase | type of invertase inhibition ([3]; hydrolysis of sucrose by invertase, detailed kinetic study still required): appears to be a non-reversible inhibitor
4 | complete hydrolysis |  | OC[C@H]1O[C@@](CO)(O[C@H]2O[C@H](CO)[C@@H](O)[C@H](O)[C@H]2O)[C@@H](O)[C@@H]1O [sucrose, reference compound] |  | 
5 |  | 126 (≈ 130 mM) | OC[C@H]1O[C@@H]2O[C@H]3[C@H](O)[C@@H](O)[C@@H](O[C@H]4[C@H](O)[C@@H](O)[C@@H](O[C@H]5[C@H](O)[C@@H](O)[C@@H](O[C@H]6[C@H](O)[C@@H](O)[C@@H](O[C@H]7[C@H](O)[C@@H](O)[C@@H](O[C@H]1[C@H](O)[C@H]2O)O[C@@H]7CO)O[C@@H]6CO)O[C@@H]5CO)O[C@@H]4CO)O[C@@H]3CO [α-CD, cyclohexaamylose, reference compound] |  | 
6 |  | 20 (≈ 17.6 mM) | OC[C@H]1O[C@@H]2O[C@H]3[C@H](O)[C@@H](O)[C@@H](O[C@H]4[C@H](O)[C@@H](O)[C@@H](O[C@H]5[C@H](O)[C@@H](O)[C@@H](O[C@H]6[C@H](O)[C@@H](O)[C@@H](O[C@H]7[C@H](O)[C@@H](O)[C@@H](O[C@H]8[C@H](O)[C@@H](O)[C@@H](O[C@H]1[C@H](O)[C@H]2O)O[C@@H]8CO)O[C@@H]7CO)O[C@@H]6CO)O[C@@H]5CO)O[C@@H]4CO)O[C@@H]3CO [β-CD, cycloheptaamylose, reference compound] |  | 
